How the values were obtained:
[1] = tested on: adhesion of HUVEC to neutrophils; test: Inhibition of adhesion of neutrophils (treated with anti-CD18 antibody) to IL-1β-stimulated HUVEC (Experiment 1); type: cell-based, human; conditions: at a concentration of 0.05-0.5mM; wells without compound = 100%
Description: To each well of a 96 well plate was added a PBS solution containing 0.1% gelatine at 50 µl/well, and after 15 minutes at room temperature, the solution was removed with a Pasteur pipette. On the coated 96 well plate, human umbilical vein endothelial cells (HUVEC, 5th generation) were cultured until confluent. The culture medium was removed with a Pasteur pipette and the MEM medium containing 45 U/ml of IL-1β was added at 100 µl/well, and incubated for 4 hours. On the same plate, wells containing the MEM medium without IL-1β were prepared and similarly incubated for 4 hours.
Blood was collected from a healthy human using heparin as an anticoagulant. In a 50 ml-tube was placed 15 ml of neutrophil·monocyte fraction, and 25 ml of whole blood was gently layered. The brake function was released and centrifuged at 1700 rpm for 30 minutes at room temperature, and the neutrophil layer was collected and transferred into a 50 ml tube containing 30 ml of HBSS solution. The brake function was recovered and centrifuged at 3000 rpm for 3 minutes at room temperature, the supernatant was removed, and 30 ml of HBSS was added for resuspension. This procedure was repeated twice. The neutrophils were counted using hemocytometer, adjusted to 5×10^6 cells/ml with the HBSS solution, charged in a 15 ml tube, mixed with anti-CD18 antibody at final concentration of 10 µg/ml, and incubated for 1 hour with occasional gentle swirling.
MEM medium was removed from the HUVEC plate with a Pasteur pipette, a compound of the present invention diluted with MEM medium at 50 µl/well was added, and incubated for 20 minutes.
The neutrophils treated with anti-CD18 antibody were added to the HUVEC plate at 25 µl/well, and incubated for 5 minutes. […]
The OD490 of each well was determined, and the OD490 value of wells containing MEM medium without IL-1β was subtracted from that of each well. The value found in wells containing none of the compounds of the present invention was set to be 100% and the […] of the compound of the invention was assessed as shown in Figure 1. […]

rsE-selectin = target: T1, rsE-selectin (Homo sapiens, UniProt P16581); test: Inhibition of adhesion of HL-60 cells to plate-coated rsE-selectin (Experiment 2); type: cell-based; conditions: 50% inhibition concentration of adhesion of rsE-selectin to HL-60, from inhibition curves; medium-only well = 100%
T1 sequence (P16581 22-556 limits assumed): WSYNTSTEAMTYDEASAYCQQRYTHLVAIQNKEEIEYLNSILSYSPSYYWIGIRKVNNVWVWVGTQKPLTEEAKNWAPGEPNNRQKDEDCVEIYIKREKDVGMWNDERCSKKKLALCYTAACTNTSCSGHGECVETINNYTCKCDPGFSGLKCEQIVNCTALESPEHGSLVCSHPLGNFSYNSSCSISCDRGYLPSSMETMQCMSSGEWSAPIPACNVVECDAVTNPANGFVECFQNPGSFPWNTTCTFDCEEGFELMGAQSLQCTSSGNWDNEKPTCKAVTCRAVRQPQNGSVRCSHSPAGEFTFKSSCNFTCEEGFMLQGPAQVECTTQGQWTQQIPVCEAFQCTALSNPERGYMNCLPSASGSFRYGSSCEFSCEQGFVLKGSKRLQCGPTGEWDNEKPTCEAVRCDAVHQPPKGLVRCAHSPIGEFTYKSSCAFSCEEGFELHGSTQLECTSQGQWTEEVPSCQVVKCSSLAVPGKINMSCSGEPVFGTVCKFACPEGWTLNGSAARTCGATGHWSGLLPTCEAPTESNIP
Description: The DPBS solution containing rsE-selectin (3 µg/ml) was added to a 96 well plate at 50 µl/well, while wells filled with DPBS without rsE-selectin (non-specific adhesion control) were prepared on the same plate, and the plate was kept at room temperature for 3 hours. Then wells were washed 3 times with a DPBS/BSA solution at 200 µl/well, and DPBS/BSA solution was added at 200 µl/well, and the plate was kept at room temperature for 1 hour. After removing DPBS/BSA solution, a medium containing NWB or NWB plus a compound of the invention was added at 40 µl/well.
Frozen HL-60 cells were thawed promptly at 37°C, and washed with NWB cooled to 4°C 3 times by centrifugation at 1500rpm × 5 min. The cells were adjusted with NWB to 1×10^7 cells/ml, added to the plate at 20 µl/well, and the plate was kept at room temperature for 15 min.
The plate was set on a plate washer to remove nonadhesive HL-60 cells. The plate washer was set at slow mode, cycle 3 (washing 3 times), soak 0 sec., 12 rows (along vertical direction), and volume of NWB for 1 washing 200 µl/well at room temperature.
A citrate solution containing 0.1% NP-40 at room temperature was added at 50 µl/well, and the plate was kept at room temperature for 5 minutes. The substrate solution (4 mg OPDA, 4µl 30% H2O2/4 ml citrate) was added at 50 µl/well, protected from light with aluminum foil, allowed to develop color for 5 to 20 minutes, and the reaction was terminated by adding 4N-H2SO4 at 50µl/well. The substrate solution was used within 30 minutes after preparation.
The OD490 of each well was determined, and the OD490 value of the well for nonspecific adhesion was subtracted from the value of each well. The value found in a well containing only the medium was used as a control (100%) and the amount of adhesion in wells containing Compounds (15), (31), (33)-(40) or (41) of the invention was calculated by percent in terms of the values of the control. By drawing inhibition curves, 50% inhibition concentration (IC50) was determined.
The materials for the experiment were obtained from the following sources. rsE-selectin: producible by the method described in J. C. Poulson, J. Am. Chem. Soc., 117: 66-79 (1995). The sample of rsE-selectin used in the experiments was kindly supplied by the author. HL-60 : ATCC Corp. DPBS (Dulbecco Phosphate Buffered Saline) : GIBCO Corp. BSA (Bovine Serum Albumin) : Sigma Corp. HBSS (Hanks Balanced Salt Solution) : GIBCO Corp. OPDA (Ortho-phenylenediamine) : Sigma Corp. RPMI 1640 medium : GIBCO Corp. Bovine Fetal Serum : GIBCO Corp. Plate : Immulon. 2. (flat bottomed) : Dynatech Laboratories. Plate washer; Microplate Washer : Molecular Devices Corp.
A compound of the present invention was adjusted to 100mM with DPBS, and pH was adjusted to 7.1-7.4.
HL-60 was cultured in RPMI 1640 medium supplemented with 10% Bovine Fetal Serum. Using a cell freezing solution consisting of 80% RPMI 1640 medium + 10% Bovine Fetal Serum + 10% DMSO, HL-60 was frozen at 1.5 × 10^7 cells per a tube according to a conventional method, and stocked at -80°C. This was used under sterile condition.
Composition of DPBS/BSA was DPBS + 1% BSA.
Composition of NWB was HBSS + 10mM-HEPES + 0.2%glucose + 1%BSA+ 1mM-CaCl2. These two solutions are prepared under sterile condition.
The citrate solution was prepared by dissolving 2.33 g of citric acid and 9.20 g of Na2HPO4·12H2O in 500 ml of desalted water.

SMILES | inhibited the adhesion of HUVEC to neutrophils [1] | IC50 (rsE-selectin)
COc1cc(CO[C@@H]2O[C@H](CO)[C@@H](O[C@@H]3O[C@H](CO)[C@H](O)[C@H](O[C@]4(C(=O)O)C[C@H](O)[C@@H](NC(C)=O)[C@H]([C@H](O)[C@H](O)CO)O4)[C@H]3O)[C@H](O[C@@H]3O[C@@H](C)[C@@H](O)[C@@H](O)[C@@H]3O)[C@H]2NC(=O)c2ccc3ccccc3c2)cc(OC)c1OC [Compound 15, 3,4,5-trimethoxybenzyl (5-acetamido-3,5-dideoxy-α-D-glycero-D-galacto-2-nonulopyra nosylonic acid)-(2→3)-O-(β-D-galacto-pyranosyl)-(1→4)-O-[α-L-fucopyranosyl-(1→3)-O]-(2-deoxy-2-naphthamido-β-D-glucopyranoside)] | ≥ 50% | 110 µM
COc1cc(CCCO[C@@H]2O[C@H](CO)[C@@H](O[C@@H]3O[C@H](CO)[C@H](O)[C@H](O[C@]4(C(=O)O)C[C@H](O)[C@@H](NC(C)=O)[C@H]([C@H](O)[C@H](O)CO)O4)[C@H]3O)[C@H](O[C@@H]3O[C@@H](C)[C@@H](O)[C@@H](O)[C@@H]3O)[C@H]2NC(=O)c2ccc3ccccc3c2)cc(OC)c1OC [Compound 38, 3-(3,4,5-Trimethoxyphenyl)propyl (5-acetamido-3,5-dideoxy-α-D-glycero-D-galacto-2-nonulopyranosylonic acid)-(2→3)-O-(β-D-galactopyranosyl)-(1→4)-O-[α-L-fucopyranosyl-(1→3)-O]-(2-deoxy-2-naphthamido-β-D-glucopyra noside)] | – | 150 µM
CC(=O)N[C@H]1[C@H]([C@H](O)[C@H](O)CO)O[C@@](O[C@H]2[C@@H](O)[C@@H](CO)O[C@@H](O[C@H]3[C@H](O[C@@H]4O[C@@H](C)[C@@H](O)[C@@H](O)[C@@H]4O)[C@@H](NC(=O)c4ccc5ccccc5c4)[C@H](OCCCCCCCCCCCCO)O[C@@H]3CO)[C@@H]2O)(C(=O)O)C[C@@H]1O [Compound 37, 12-Hydroxydodecyl (5-acetamido-3,5-dideoxy-α-D-glycero-D-galacto-2-nonulopyranosylonic acid)-(2→3)-O-(β-D-galactopyranosyl)-(1→4)-O-[α-L-fucopyranosyl-(1→3)-O]-(2-deoxy-2-naphthamido-β-D-glucopyranoside)] | – | 110 µM
CC(=O)N[C@H]1[C@H]([C@H](O)[C@H](O)CO)O[C@@](O[C@H]2[C@@H](O)[C@@H](CO)O[C@@H](O[C@H]3[C@H](O[C@@H]4O[C@@H](C)[C@@H](O)[C@@H](O)[C@@H]4O)[C@@H](NC(=O)c4ccc5ccccc5c4)[C@H](OCCCCCCCCCO)O[C@@H]3CO)[C@@H]2O)(C(=O)O)C[C@@H]1O [Compound 35, 9-Hydroxynonyl (5-acetamido-3,5-dideoxy-α-D-glycero-D-galacto-2-nonulopyranosylonic acid)-(2→3)-O-(β-D-galactopyranosyl)-(1→4)-O-[α-L-fucopyranosyl-(1→3)-O ]-(2-deoxy-2-naphthamido-β-D-glucopyranoside)] | ≥ 50% | 50 µM
CCOCCOCCO[C@@H]1O[C@H](CO)[C@@H](O[C@@H]2O[C@H](CO)[C@H](O)[C@H](O[C@]3(C(=O)O)C[C@H](O)[C@@H](NC(C)=O)[C@H]([C@H](O)[C@H](O)CO)O3)[C@H]2O)[C@H](O[C@@H]2O[C@@H](C)[C@@H](O)[C@@H](O)[C@@H]2O)[C@H]1NC(=O)c1ccc2ccccc2c1 [Compound 31, 2-(2-Ethoxyethoxy)ethyl (5-acetamido-3,5-dideoxy-α-D-glycero-D-galacto-2-nonulopyranosylonic acid)-(2→3)-O-(β-D-galactopyranosyl)-(1→4)-O-[α-L-fucopyranosyl-(1→3)-O]-(2-deoxy-2-naphthamido-β-D-glucopyranoside)] | ≥ 50% | 110 µM
CCCCCCCCCOc1cc(CCCO[C@@H]2O[C@H](CO)[C@@H](O[C@@H]3O[C@H](CO)[C@H](O)[C@H](O[C@]4(C(=O)O)C[C@H](O)[C@@H](NC(C)=O)[C@H]([C@H](O)[C@H](O)CO)O4)[C@H]3O)[C@H](O[C@@H]3O[C@@H](C)[C@@H](O)[C@@H](O)[C@@H]3O)[C@H]2NC(=O)c2ccc3ccccc3c2)cc(OC)c1OC [Compound 39, 3-(4,5-Dimethoxy-3-nonyloxyphenyl)propyl (5-acetamido-3,5-dideoxy-α-D-glycero-D-galacto-2-nonulopyra nosylonic acid)-(2→3)-O-(β-D-galactopyranosyl)-(1→4) -O-[α-L-fucopyranosyl-(1→3)-O]-(2-deoxy-2-naphthamido-β-D-g lucopyranoside)] | – | 150 µM

— patent publication EP0801071A1, “LEWIS X DERIVATIVE AND PROCESS FOR PRODUCING THE SAME” (SUMITOMO PHARMACEUTICALS COMPANY, LIMITED, priority 1994, dated 1996)
